From patent US11572590B2, “Methods for evaluating tumor cell spheroids using 3D microfluidic cell culture device” (Dana-Farber Cancer Institute, Inc., priority 2017, dated 2023)
Like-named read-outs stand apart in the source and are kept apart here.

Columns and labels:
Experiment in all cases: SelectScreen Kinase Profiling, single point inhibition and IC50 for off-target kinases
Assay type in all cases: biochemical
off-target kinases [1] = biological target: off-target kinases (Homo sapiens, UniProt P35916); details: FLT4 (VEGFR3), ATP Km app, ZLYTE
off-target kinases [2] = biological target: off-target kinases (Homo sapiens, UniProt P00519, E255K); details: ABL1 E255K, ATP Km app, ZLYTE
off-target kinases [3] = biological target: off-target kinases (Homo sapiens, UniProt P17252); details: PRKCA (PKC alpha), ZLYTE, ATP Km app
off-target kinases [4] = biological target: T1, off-target kinases (Homo sapiens, UniProt P36897); details: TGFBR1 (ALK5), LanthaScreen Binding
T1 sequence (P36897 34-503): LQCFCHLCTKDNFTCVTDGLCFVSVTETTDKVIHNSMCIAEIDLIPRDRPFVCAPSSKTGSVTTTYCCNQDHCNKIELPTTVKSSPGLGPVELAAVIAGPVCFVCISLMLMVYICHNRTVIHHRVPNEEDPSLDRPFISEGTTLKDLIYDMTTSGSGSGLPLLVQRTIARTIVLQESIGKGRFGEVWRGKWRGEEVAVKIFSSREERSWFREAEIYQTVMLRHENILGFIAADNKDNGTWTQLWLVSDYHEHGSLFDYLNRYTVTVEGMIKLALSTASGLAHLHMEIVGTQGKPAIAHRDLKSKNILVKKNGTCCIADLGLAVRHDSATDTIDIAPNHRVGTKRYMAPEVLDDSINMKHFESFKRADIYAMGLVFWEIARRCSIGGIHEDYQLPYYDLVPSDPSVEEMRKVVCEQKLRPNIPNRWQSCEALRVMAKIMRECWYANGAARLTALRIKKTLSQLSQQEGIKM

off-target kinases [5] = biological target: off-target kinases (Homo sapiens, UniProt Q9P289); details: MST4, ZLYTE, ATP Km app
off-target kinases [6] = biological target: off-target kinases (Homo sapiens, UniProt Q8IU85); details: CAMK1D (CaMKI delta), ZLYTE, ATP Km app
off-target kinases (Homo sapiens, UniProt Q8IU85), sequence (Q8IU85 whole entry): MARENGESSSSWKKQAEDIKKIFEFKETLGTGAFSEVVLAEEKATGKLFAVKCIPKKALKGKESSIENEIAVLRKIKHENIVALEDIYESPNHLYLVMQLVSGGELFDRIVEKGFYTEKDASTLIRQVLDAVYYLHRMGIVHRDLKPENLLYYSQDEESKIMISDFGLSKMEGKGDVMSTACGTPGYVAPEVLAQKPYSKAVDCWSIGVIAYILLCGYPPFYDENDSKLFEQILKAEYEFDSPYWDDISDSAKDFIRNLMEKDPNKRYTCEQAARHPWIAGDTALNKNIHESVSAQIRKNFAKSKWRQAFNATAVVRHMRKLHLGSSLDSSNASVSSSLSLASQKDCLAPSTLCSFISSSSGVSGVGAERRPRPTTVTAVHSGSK

off-target kinases (Homo sapiens, UniProt Q9P289), sequence (Q9P289 whole entry): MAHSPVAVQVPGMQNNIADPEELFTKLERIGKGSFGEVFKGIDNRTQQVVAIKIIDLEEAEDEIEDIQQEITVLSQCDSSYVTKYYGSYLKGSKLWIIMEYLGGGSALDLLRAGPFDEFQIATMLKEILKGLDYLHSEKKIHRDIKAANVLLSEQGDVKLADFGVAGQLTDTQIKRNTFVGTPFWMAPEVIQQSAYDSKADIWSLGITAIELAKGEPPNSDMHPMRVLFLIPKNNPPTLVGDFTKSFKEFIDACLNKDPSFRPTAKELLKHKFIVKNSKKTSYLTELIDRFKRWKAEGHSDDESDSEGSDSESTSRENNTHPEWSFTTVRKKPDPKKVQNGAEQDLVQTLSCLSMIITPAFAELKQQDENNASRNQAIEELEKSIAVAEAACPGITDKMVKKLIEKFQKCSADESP
off-target kinases (Homo sapiens, UniProt P00519, E255K), sequence (P00519 whole entry E255K): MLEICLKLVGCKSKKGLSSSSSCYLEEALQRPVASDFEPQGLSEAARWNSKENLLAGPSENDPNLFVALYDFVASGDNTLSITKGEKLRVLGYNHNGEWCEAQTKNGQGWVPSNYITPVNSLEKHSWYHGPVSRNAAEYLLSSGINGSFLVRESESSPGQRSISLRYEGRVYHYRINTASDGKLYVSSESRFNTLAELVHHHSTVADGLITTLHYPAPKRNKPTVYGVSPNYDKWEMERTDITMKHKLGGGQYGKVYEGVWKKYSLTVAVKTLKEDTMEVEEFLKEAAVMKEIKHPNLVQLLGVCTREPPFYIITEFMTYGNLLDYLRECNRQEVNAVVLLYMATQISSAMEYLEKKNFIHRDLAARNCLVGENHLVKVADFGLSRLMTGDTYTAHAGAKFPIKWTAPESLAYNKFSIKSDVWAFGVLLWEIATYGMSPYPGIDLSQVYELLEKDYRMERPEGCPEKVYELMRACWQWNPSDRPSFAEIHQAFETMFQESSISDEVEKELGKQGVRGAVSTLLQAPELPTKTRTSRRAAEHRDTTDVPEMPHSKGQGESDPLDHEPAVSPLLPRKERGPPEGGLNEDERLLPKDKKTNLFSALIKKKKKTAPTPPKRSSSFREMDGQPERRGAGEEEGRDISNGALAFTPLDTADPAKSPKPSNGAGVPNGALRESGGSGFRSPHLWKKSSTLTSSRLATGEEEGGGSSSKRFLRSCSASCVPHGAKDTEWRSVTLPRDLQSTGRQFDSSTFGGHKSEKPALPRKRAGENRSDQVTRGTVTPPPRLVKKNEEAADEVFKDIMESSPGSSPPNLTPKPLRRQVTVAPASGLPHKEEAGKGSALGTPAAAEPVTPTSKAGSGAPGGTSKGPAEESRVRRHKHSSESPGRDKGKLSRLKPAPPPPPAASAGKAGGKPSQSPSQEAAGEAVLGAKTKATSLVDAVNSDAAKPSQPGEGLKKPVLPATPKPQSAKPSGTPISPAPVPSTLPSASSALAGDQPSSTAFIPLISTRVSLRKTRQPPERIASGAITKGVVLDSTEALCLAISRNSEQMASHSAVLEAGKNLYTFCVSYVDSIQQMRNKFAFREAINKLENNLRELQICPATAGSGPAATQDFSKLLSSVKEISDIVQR
off-target kinases (Homo sapiens, UniProt P35916), sequence (P35916 25-1363): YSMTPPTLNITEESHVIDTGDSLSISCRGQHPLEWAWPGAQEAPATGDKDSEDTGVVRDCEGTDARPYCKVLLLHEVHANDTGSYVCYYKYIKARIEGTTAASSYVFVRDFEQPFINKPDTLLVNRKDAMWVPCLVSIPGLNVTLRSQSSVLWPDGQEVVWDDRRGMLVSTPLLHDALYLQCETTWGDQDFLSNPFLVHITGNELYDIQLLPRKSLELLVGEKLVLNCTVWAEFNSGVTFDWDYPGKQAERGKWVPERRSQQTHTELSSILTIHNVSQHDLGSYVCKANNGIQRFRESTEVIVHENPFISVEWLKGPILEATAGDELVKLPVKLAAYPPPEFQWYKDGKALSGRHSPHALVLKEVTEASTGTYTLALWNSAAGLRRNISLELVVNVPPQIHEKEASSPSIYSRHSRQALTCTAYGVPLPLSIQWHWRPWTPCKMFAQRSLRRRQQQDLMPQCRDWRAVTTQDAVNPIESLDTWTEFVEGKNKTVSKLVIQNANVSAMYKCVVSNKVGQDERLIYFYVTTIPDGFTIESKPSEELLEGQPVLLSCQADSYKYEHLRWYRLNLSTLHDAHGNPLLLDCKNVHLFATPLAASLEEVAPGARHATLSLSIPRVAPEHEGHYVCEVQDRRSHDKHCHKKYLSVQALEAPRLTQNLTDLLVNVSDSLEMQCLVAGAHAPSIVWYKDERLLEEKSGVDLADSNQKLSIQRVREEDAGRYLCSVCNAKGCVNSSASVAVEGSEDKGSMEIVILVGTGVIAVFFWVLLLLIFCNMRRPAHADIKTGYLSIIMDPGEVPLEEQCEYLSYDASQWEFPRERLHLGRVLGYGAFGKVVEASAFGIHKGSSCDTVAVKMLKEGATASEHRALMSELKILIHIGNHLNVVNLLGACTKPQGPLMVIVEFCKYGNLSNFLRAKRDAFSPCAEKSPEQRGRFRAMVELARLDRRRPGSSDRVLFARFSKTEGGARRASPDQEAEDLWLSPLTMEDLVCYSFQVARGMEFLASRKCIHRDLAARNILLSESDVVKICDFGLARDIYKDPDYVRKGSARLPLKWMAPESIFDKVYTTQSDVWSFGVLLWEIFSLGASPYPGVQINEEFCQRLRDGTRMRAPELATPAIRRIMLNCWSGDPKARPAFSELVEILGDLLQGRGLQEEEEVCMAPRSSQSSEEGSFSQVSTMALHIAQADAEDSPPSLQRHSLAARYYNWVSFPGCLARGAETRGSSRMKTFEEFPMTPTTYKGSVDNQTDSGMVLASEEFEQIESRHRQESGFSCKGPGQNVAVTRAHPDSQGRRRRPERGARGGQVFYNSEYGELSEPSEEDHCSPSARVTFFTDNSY

N#Cc1cc(-c2ncnc(Nc3ccc(N4CCN(C5COC5)CC4)cc3)n2)ccc1OC1CCOCC1 [Compound 1, 5-(4-((4-(4-(oxetan-3-yl)piperazin-1-yl)phenyl)amino)-1,3,5-triazin-2-yl)-2-((tetrahydro-2H-pyran-4-yl)oxy)benzonitrile]
inhibition (off-target kinases [1]; read-out: % Inhibition 1): 64%
inhibition (off-target kinases [1]; read-out: % Inhibition 2): 60%
inhibition (off-target kinases [1]; read-out: % Inhibition Avg): 62%
inhibition (off-target kinases [2]; read-out: % Inhibition 1): 53%
inhibition (off-target kinases [2]; read-out: % Inhibition 2): 50%
inhibition (off-target kinases [2]; read-out: % Inhibition Avg): 51%
inhibition (off-target kinases [3]; read-out: % Inhibition 1): 0%
inhibition (off-target kinases [3]; read-out: % Inhibition 2): -5%
inhibition (off-target kinases [3]; read-out: % Inhibition Avg): -2%
inhibition (off-target kinases [4]; read-out: % Inhibition 1): 56%
inhibition (off-target kinases [4]; read-out: % Inhibition 2): 58%
inhibition (off-target kinases [4]; read-out: % Inhibition Avg): 57%
inhibition (off-target kinases [5]; read-out: % Inhibition 1): 2%
inhibition (off-target kinases [5]; read-out: % Inhibition 2): 3%
inhibition (off-target kinases [5]; read-out: % Inhibition Avg): 2%
inhibition (off-target kinases [6]; read-out: % Inhibition 1): 12%
inhibition (off-target kinases [6]; read-out: % Inhibition 2): 13%
inhibition (off-target kinases [6]; read-out: % Inhibition Avg): 12%
